The supplement of paper PMC10307832

Legend:
Assay in all cases: relative viability (nuclei count vs DMSO), 5 days (fraction); higher = more cells survive
HARA = test system: HARA
How it was run: (§1)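 Relative viability divides the nuclei count in treated wells by that in vehicle wells. Lung cancer cell lines were seeded in 1536-well plates, dosed by pin tool the next day, and fixed and stained after 5 days in one step with final 0.05% Triton X-100, 1% formaldehyde and 1 ug/ml Hoechst. Dosing was a single drug or a fixed anchor-drug dose plus five library-drug doses (not always all listed) in √10 steps, and values are medians of duplicate plates imaged at 4×.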

HCC-827 = test system: HCC-827
How it was run: as §1

PC-3 [JPC-3] = test system: PC-3 [JPC-3]
How it was run: as §1

HCC-44 = test system: HCC-44
How it was run: as §1

NCI-H2087 = test system: NCI-H2087
How it was run: as §1

COR-L 105 = test system: COR-L 105
How it was run: as §1

LCLC-97TM1 = test system: LCLC-97TM1
How it was run: as §1

CAL-12T = test system: CAL-12T
How it was run: as §1

LU99A = test system: LU99A
How it was run: as §1

NCI-H1993 = test system: NCI-H1993
How it was run: as §1

LXF-289 = test system: LXF-289
How it was run: as §1

BEN = test system: BEN
How it was run: as §1

NCI-H2126 = test system: NCI-H2126
How it was run: as §1

HOP-62 = test system: HOP-62
How it was run: as §1

NCI-H727 = test system: NCI-H727
How it was run: as §1

HCC-366 = test system: HCC-366
How it was run: as §1

LC-2-ad = test system: LC-2-ad
How it was run: as §1

SK-MES-1 = test system: SK-MES-1
How it was run: as §1

HCC-15 = test system: HCC-15
How it was run: as §1

COR-L23 = test system: COR-L23
How it was run: as §1

NCI-H2009 = test system: NCI-H2009
How it was run: as §1

NCI-H2170 = test system: NCI-H2170
How it was run: as §1

PC-14 = test system: PC-14
How it was run: as §1

Structure (SMILES): Cc1cnc(-c2cnc(NCCNc3ccc(C#N)cn3)nc2-c2ccc(Cl)cc2Cl)[nH]1 + O=C(CCCCCCC(=O)Nc1ccccc1)NO [Vorinostat] (partner 1 µM)
- relative viability (HARA; first compound 0.08 µM): 0.659
- relative viability (HARA; first compound 0.253 µM): 0.612
- relative viability (HARA; first compound 0.8 µM): 0.487
- relative viability (HARA; first compound 2.53 µM): 0.492
- relative viability (HCC-827; first compound 0.08 µM): 0.85
- relative viability (HCC-827; first compound 0.253 µM): 0.306
- relative viability (HCC-827; first compound 0.8 µM): 0.827
- relative viability (HCC-827; first compound 2.53 µM): 0.871
- relative viability (PC-3 [JPC-3]; first compound 0.08 µM): 0.811
- relative viability (PC-3 [JPC-3]; first compound 0.253 µM): 0.713
- relative viability (PC-3 [JPC-3]; first compound 0.8 µM): 0.726
- relative viability (PC-3 [JPC-3]; first compound 2.53 µM): 0.838
- relative viability (HCC-44; first compound 0.08 µM): 1.05
- relative viability (HCC-44; first compound 0.253 µM): 1.16
- relative viability (HCC-44; first compound 0.8 µM): 1.03
- relative viability (HCC-44; first compound 2.53 µM): 1.24
- relative viability (NCI-H2087; first compound 0.08 µM): 0.871
- relative viability (NCI-H2087; first compound 0.8 µM): 0.514
- relative viability (NCI-H2087; first compound 2.53 µM): 0.663
- relative viability (COR-L 105; first compound 0.08 µM): 0.942
- relative viability (COR-L 105; first compound 0.253 µM): 0.77
- relative viability (COR-L 105; first compound 0.8 µM): 0.596
- relative viability (COR-L 105; first compound 2.53 µM): 0.663
- relative viability (LCLC-97TM1; first compound 0.08 µM): 0.712
- relative viability (LCLC-97TM1; first compound 0.253 µM): 0.462
- relative viability (LCLC-97TM1; first compound 0.8 µM): 0.515
- relative viability (LCLC-97TM1; first compound 2.53 µM): 0.515
- relative viability (CAL-12T; first compound 0.08 µM): 0.928
- relative viability (CAL-12T; first compound 0.253 µM): 0.702
- relative viability (CAL-12T; first compound 0.8 µM): 0.848
- relative viability (CAL-12T; first compound 2.53 µM): 0.807
- relative viability (LU99A; first compound 0.08 µM): 0.592
- relative viability (LU99A; first compound 0.253 µM): 0.523
- relative viability (LU99A; first compound 0.8 µM): 0.535
- relative viability (LU99A; first compound 2.53 µM): 0.559
- relative viability (NCI-H1993; first compound 0.08 µM): 1.26
- relative viability (NCI-H1993; first compound 0.253 µM): 0.761
- relative viability (NCI-H1993; first compound 0.8 µM): 0.727
- relative viability (NCI-H1993; first compound 2.53 µM): 0.76
- relative viability (LXF-289; first compound 0.08 µM): 0.737
- relative viability (LXF-289; first compound 0.253 µM): 0.693
- relative viability (LXF-289; first compound 0.8 µM): 0.734
- relative viability (LXF-289; first compound 2.53 µM): 0.846
- relative viability (BEN; first compound 0.08 µM): 0.575
- relative viability (BEN; first compound 0.253 µM): 0.559
- relative viability (BEN; first compound 0.8 µM): 0.595
- relative viability (BEN; first compound 2.53 µM): 0.559
- relative viability (NCI-H2126; first compound 0.08 µM): 0.775
- relative viability (NCI-H2126; first compound 0.253 µM): 0.695
- relative viability (NCI-H2126; first compound 0.8 µM): 0.703
- relative viability (NCI-H2126; first compound 2.53 µM): 0.819
- relative viability (HOP-62; first compound 0.08 µM): 0.733
- relative viability (HOP-62; first compound 0.8 µM): 0.545
- relative viability (HOP-62; first compound 2.53 µM): 0.594
- relative viability (NCI-H727; first compound 0.08 µM): 1.18
- relative viability (NCI-H727; first compound 0.253 µM): 0.787
- relative viability (NCI-H727; first compound 0.8 µM): 1.02
- relative viability (NCI-H727; first compound 2.53 µM): 1.23
- relative viability (HCC-366; first compound 0.08 µM): 0.332
- relative viability (HCC-366; first compound 0.253 µM): 0.24
- relative viability (HCC-366; first compound 0.8 µM): 0.31
- relative viability (HCC-366; first compound 2.53 µM): 0.369
- relative viability (LC-2-ad; first compound 0.08 µM): 0.708
- relative viability (LC-2-ad; first compound 0.8 µM): 0.705
- relative viability (LC-2-ad; first compound 2.53 µM): 0.603
- relative viability (SK-MES-1; first compound 0.08 µM): 1.07
- relative viability (SK-MES-1; first compound 0.253 µM): 0.977
- relative viability (SK-MES-1; first compound 0.8 µM): 1.19
- relative viability (SK-MES-1; first compound 2.53 µM): 1.24
- relative viability (HCC-15; first compound 0.08 µM): 0.832
- relative viability (HCC-15; first compound 0.253 µM): 0.818
- relative viability (HCC-15; first compound 0.8 µM): 0.817
- relative viability (HCC-15; first compound 2.53 µM): 0.829
- relative viability (COR-L23; first compound 0.08 µM): 0.556
- relative viability (COR-L23; first compound 0.253 µM): 0.42
- relative viability (COR-L23; first compound 0.8 µM): 0.508
- relative viability (COR-L23; first compound 2.53 µM): 0.505
- relative viability (NCI-H2009; first compound 0.08 µM): 0.738
- relative viability (NCI-H2009; first compound 0.253 µM): 0.676
- relative viability (NCI-H2009; first compound 0.8 µM): 0.659
- relative viability (NCI-H2009; first compound 2.53 µM): 0.725
- relative viability (NCI-H2170; first compound 0.08 µM): 0.837
- relative viability (NCI-H2170; first compound 0.8 µM): 0.734
- relative viability (NCI-H2170; first compound 2.53 µM): 0.714
- relative viability (PC-14; first compound 0.08 µM): 0.851
- relative viability (PC-14; first compound 0.253 µM): 0.603
- relative viability (PC-14; first compound 0.8 µM): 0.727
- relative viability (PC-14; first compound 2.53 µM): 0.587
